Assay results as given in US20250170141A1, “MRGPRX2 MODULATORS AND RELATED METHODS OF TREATMENT” (Escient Pharmaceuticals, Inc., priority 2023, published 2025).

Biological target: T1, human MRGPRX2 (Homo sapiens, UniProt Q96LB1)
T1 construct: expressed in transfected cells; host or cells: CHO cells, stably transfected (G418 and Hygromycin B selection)
T1 sequence (Q96LB1 1-330): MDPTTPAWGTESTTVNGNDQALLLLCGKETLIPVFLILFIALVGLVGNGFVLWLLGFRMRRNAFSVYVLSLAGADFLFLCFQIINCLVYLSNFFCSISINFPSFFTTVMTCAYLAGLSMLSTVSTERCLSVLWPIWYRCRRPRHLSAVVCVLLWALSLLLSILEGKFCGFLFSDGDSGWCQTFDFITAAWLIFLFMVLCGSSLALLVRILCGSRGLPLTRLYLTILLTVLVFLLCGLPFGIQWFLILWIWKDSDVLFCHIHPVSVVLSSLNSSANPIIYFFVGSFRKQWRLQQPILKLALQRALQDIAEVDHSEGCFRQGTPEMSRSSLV
Assay: MRGPRX2 activity: IP-One Gq HTRF assay in CHO cells, antagonism versus 0.3 uM Cortistatin-14
Format: cell-based
Conditions: versus 0.3 uM Cortistatin-14 agonist, CHO cells expressing human MRGPRX2, read-out: MRGPRX2 Antagonist Activity
Outline: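 CHO cells stably expressing human MRGPRX2 were treated with a 10-point compound curve (30 uM top, 1:3) plus 0.3 μM Cortistatin-14 in LiCl-containing Tris buffer, pH 8. Incubation was 1 h at 37 °C then 1 h at room temperature; IP-1 was detected by HTRF and IC50 came from the HTRF ratio.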

| IC50 | Compound |
| --- | --- |
| < 0.1 µM | O=S1(=O)N=C(NCc2ccncc2F)Nc2c(Cc3ccccc3Cl)cccc21 [Compound 12-23, 5-(2-chlorobenzyl)-3-(((3-fluoropyridin-4-yl)methyl)amino)-4H-benzo[e][1,2,4]thiadiazine 1,1-dioxide] |
| 0.1 to 0.5 µM | Cc1ccc(C(C)c2c(F)ccc3c2NC(NCc2cccc(F)c2)=NS3(=O)=O)cc1 (centres unmarked) [Compound 22-22, 6-fluoro-3-((3-fluorobenzyl)amino)-5-(1-(p-tolyl)ethyl)-4H-benzo[e][1,2,4]thiadiazine 1,1-dioxide] |
| < 0.1 µM | Cc1cc(F)ccc1CNC1=NS(=O)(=O)c2cccc(Cc3ccccc3Cl)c2N1 [Compound 12-7, 5-(2-chlorobenzyl)-3-((4-fluoro-2-methylbenzyl)amino)-4H-benzo[e][1,2,4]thiadiazine 1,1-dioxide] |
| < 0.1 µM | CC(c1ccccc1F)c1c(F)c(F)cc2c1NC(NCc1ncccc1F)=NS2(=O)=O (centres unmarked) [Compound 9-7, 6,7-difluoro-5-(1-(2-fluorophenyl)ethyl)-3-(((3-fluoropyridin-2-yl)methyl)amino)-4H-benzo[e][1,2,4]thiadiazine 1,1-dioxide] |
| 0.501 to 1 µM | O=S1(=O)N=C(Nc2ccc(F)cc2)Nc2c1cc(F)c(F)c2Cc1ccccc1Cl [Compound 4-19, 5-(2-chlorobenzyl)-6,7-difluoro-3-((4-fluorophenyl)amino)-4H-benzo[e][1,2,4]thiadiazine 1,1-dioxide] |
| < 0.1 µM | O=S1(=O)N=C(NCc2ccccc2F)Nc2c(Cc3c(Cl)cccc3Cl)cccc21 [Compound 6-5, 5-(2,6-dichlorobenzyl)-3-((2-fluorobenzyl)amino)-4H-benzo[e][1,2,4]thiadiazine 1,1-dioxide] |
| < 0.1 µM | COc1cccc(Cc2cccc3c2NC(NCc2ccccc2F)=NS3(=O)=O)c1 [Compound 6-9, 3-((2-fluorobenzyl)amino)-5-(3-methoxybenzyl)-4H-benzo[e][1,2,4]thiadiazine 1,1-dioxide] |
| < 0.1 µM | O=S1(=O)N=C(NCc2ncccc2F)Nc2c1cc(F)c(Cl)c2Oc1ccccc1Cl [Compound 1-48, 6-chloro-5-(2-chlorophenoxy)-7-fluoro-3-(((3-fluoropyridin-2-yl)methyl)amino)-4H-benzo[e][1,2,4]thiadiazine 1,1-dioxide] |
| 0.501 to 1 µM | O=S1(=O)N=C(NCc2ccc(F)cc2)Nc2c1cc(F)c(F)c2Cc1ccccc1Cl [Compound 4-13, 5-(2-chlorobenzyl)-6,7-difluoro-3-((4-fluorobenzyl)amino)-4H-benzo[e][1,2,4]thiadiazine 1,1-dioxide] |
| < 0.1 µM | CC(Cc1ccc(F)cc1)c1c(F)ccc2c1NC(NCc1cccc(F)c1)=NS2(=O)=O (centres unmarked) [Compound 22-17, 6-fluoro-3-((3-fluorobenzyl)amino)-5-(1-(4-fluorophenyl)propan-2-yl)-4H-benzo[e][1,2,4]thiadiazine 1,1-dioxide] |
| 0.1 to 0.5 µM | O=S1(=O)N=C(NCc2ccccc2F)Nc2c1ccc(F)c2Cc1ccccc1Cl [Compound 4-4, 5-(2-chlorobenzyl)-6-fluoro-3-((2-fluorobenzyl)amino)-4H-benzo[e][1,2,4]thiadiazine 1,1-dioxide] |
| 0.1 to 0.5 µM | O=S1(=O)N=C(NCc2ncccc2F)Nc2c1ccc(F)c2Oc1ccc(Cl)cc1 [Compound 2-9, 5-(4-chlorophenoxy)-6-fluoro-3-(((3-fluoropyridin-2-yl)methyl)amino)-4H-benzo[e][1,2,4]thiadiazine 1,1-dioxide] |
| < 0.1 µM | O=S1(=O)N=C(NCc2ncccc2F)Nc2c1ccc(F)c2Cc1ccccc1Cl [Compound 4-1, 5-(2-chlorobenzyl)-6-fluoro-3-(((3-fluoropyridin-2-yl)methyl)amino)-4H-benzo[e][1,2,4]thiadiazine 1,1-dioxide] |
| 0.501 to 1 µM | COc1ccc(F)c(CNC2=NS(=O)(=O)c3ccc(F)c(Oc4ccccc4Cl)c3N2)n1 [Compound 1-21, 5-(2-chlorophenoxy)-6-fluoro-3-(((3-fluoro-6-methoxypyridin-2-yl)methyl)amino)-4H-benzo[e][1,2,4]thiadiazine 1,1-dioxide] |
| < 0.1 µM | O=S1(=O)N=C(NCc2ncccc2F)Nc2c1ccc(F)c2Oc1cccc(Cl)c1Cl [Compound 1-10, 5-(2,3-dichlorophenoxy)-6-fluoro-3-(((3-fluoropyridin-2-yl)methyl)amino)-4H-benzo[e][1,2,4]thiadiazine 1,1-dioxide] |
| < 0.1 µM | O=S1(=O)N=C(NCc2cccnc2C(F)(F)F)Nc2c(Cc3ccccc3Cl)cccc21 [Compound 12-31, 5-(2-chlorobenzyl)-3-(((2-(trifluoromethyl)pyridin-3-yl)methyl)amino)-4H-benzo[e][1,2,4]thiadiazine 1,1-dioxide] |

| IC50 | Compound |
| --- | --- |
| 0.1 to 0.5 µM | O=S1(=O)N=C(NCc2ncccc2F)Nc2c(Oc3ccccc3Cl)c(Cl)cc(F)c21 [Compound 1-42, 6-chloro-5-(2-chlorophenoxy)-8-fluoro-3-(((3-fluoropyridin-2-yl)methyl)amino)-4H-benzo[e][1,2,4]thiadiazine 1,1-dioxide] |
| 1 to 2.5 µM | COc1ccncc1CNC1=NS(=O)(=O)c2cccc(Cc3ccccc3Cl)c2N1 [Compound 12-26, 5-(2-chlorobenzyl)-3-(((4-methoxypyridin-3-yl)methyl)amino)-4H-benzo[e][1,2,4]thiadiazine 1,1-dioxide] |
| < 0.1 µM | COc1cc(F)ccc1CNC1=NS(=O)(=O)c2cccc(Cc3ccccc3Cl)c2N1 [Compound 12-9, 5-(2-chlorobenzyl)-3-((4-fluoro-2-methoxybenzyl)amino)-4H-benzo[e][1,2,4]thiadiazine 1,1-dioxide] |
| < 0.1 µM | Cc1ccc(C(C)c2c(F)ccc3c2NC(NCc2cccc(F)c2)=NS3(=O)=O)o1 (centres unmarked) [Compound 22-10, 6-fluoro-3-((3-fluorobenzyl)amino)-5-(1-(5-methylfuran-2-yl)ethyl)-4H-benzo[e][1,2,4]thiadiazine 1,1-dioxide] |
| < 0.1 µM | N#Cc1ccc2c(c1Oc1ccccc1F)NC(NCc1ncccc1Cl)=NS2(=O)=O [Compound 3-1, 3-(((3-chloropyridin-2-yl)methyl)amino)-5-(2-fluorophenoxy)-4H-benzo[e][1,2,4]thiadiazine-6-carbonitrile 1,1-dioxide] |
| 0.1 to 0.5 µM | O=S1(=O)N=C(NCc2ncccc2F)Nc2c1cc(F)c(F)c2Cc1ccccc1Cl [Compound 4-5, 5-(2-chlorobenzyl)-6,7-difluoro-3-(((3-fluoropyridin-2-yl)methyl)amino)-4H-benzo[e][1,2,4]thiadiazine 1,1-dioxide] |
| < 0.1 µM | Cc1cccc(C(C)c2c(F)ccc3c2NC(NCc2cccc(F)c2)=NS3(=O)=O)c1 (centres unmarked) [Compound 22-12, 6-fluoro-3-((3-fluorobenzyl)amino)-5-(1-(m-tolyl)ethyl)-4H-benzo[e][1,2,4]thiadiazine 1,1-dioxide] |
| < 0.1 µM | Cc1cccc(C)c1Cc1cccc2c1NC(NCc1ccccc1F)=NS2(=O)=O [Compound 6-17, 5-(2,6-dimethylbenzyl)-3-((2-fluorobenzyl)amino)-4H-benzo[e][1,2,4]thiadiazine 1,1-dioxide] |
| 0.1 to 0.5 µM | CC(c1ccc2ccccc2c1)c1c(F)ccc2c1NC(NCc1cccc(F)c1)=NS2(=O)=O (centres unmarked) [Compound 22-8, 6-fluoro-3-((3-fluorobenzyl)amino)-5-(1-(naphthalen-2-yl)ethyl)-4H-benzo[e][1,2,4]thiadiazine 1,1-dioxide] |
| < 0.1 µM | Cc1cccnc1CNC1=NS(=O)(=O)c2cccc(Cc3ccccc3Cl)c2N1 [Compound 12-21, 5-(2-chlorobenzyl)-3-(((3-methylpyridin-2-yl)methyl)amino)-4H-benzo[e][1,2,4]thiadiazine 1,1-dioxide] |
| 0.1 to 0.5 µM | O=S1(=O)N=C(NCc2cccc(F)n2)Nc2c1ccc(F)c2Cc1ccccc1Cl [Compound 4-2, 5-(2-chlorobenzyl)-6-fluoro-3-(((6-fluoropyridin-2-yl)methyl)amino)-4H-benzo[e][1,2,4]thiadiazine 1,1-dioxide] |
| < 0.1 µM | CC(c1ccccc1F)c1c(F)ccc2c1NC(NCc1ccccc1)=NS2(=O)=O (centres unmarked) [Compound 7-4, 3-(benzylamino)-6-fluoro-5-(1-(2-fluorophenyl)ethyl)-4H-benzo[e][1,2,4]thiadiazine 1,1-dioxide] |
| < 0.1 µM | CC(c1cccc(F)c1Cl)c1c(F)ccc2c1NC(NCc1ncccc1F)=NS2(=O)=O (centres unmarked) [Compound 7-1, 5-(1-(2-chloro-3-fluorophenyl)ethyl)-6-fluoro-3-(((3-fluoropyridin-2-yl)methyl)amino)-4H-benzo[e][1,2,4]thiadiazine 1,1-dioxide] |
| 0.1 to 0.5 µM | O=S1(=O)N=C(NCc2ncccc2F)Nc2c1ccc(F)c2CCc1ccccc1Cl [Compound 11-1, 5-(2-chlorophenethyl)-6-fluoro-3-(((3-fluoropyridin-2-yl)methyl)amino)-4H-benzo[e][1,2,4]thiadiazine 1,1-dioxide] |
| 0.1 to 0.5 µM | O=S1(=O)N=C(NCc2ncccc2F)Nc2c1ccc(F)c2Oc1cccc(Cl)c1 [Compound 2-10, 5-(3-chlorophenoxy)-6-fluoro-3-(((3-fluoropyridin-2-yl)methyl)amino)-4H-benzo[e][1,2,4]thiadiazine 1,1-dioxide] |

| Compound | IC50 |
| --- | --- |
| CC(c1ccccc1F)c1c(F)ccc2c1NC(NCc1cccc(F)c1)=NS2(=O)=O (centres unmarked) [Compound 9-4, 6-fluoro-3-((3-fluorobenzyl)amino)-5-(1-(2-fluorophenyl)ethyl)-4H-benzo[e][1,2,4]thiadiazine 1,1-dioxide] | < 0.1 µM |
